Measurements reported in patent publication US20220273709A1, “DEVELOPMENT OF THERAPY FOR IMPROVING MYOCARDIAL CONTRACTION AND METHOD FOR INHIBITING CARDIOMYOCYTE DEATH” (KYUSHU UNIVERSITY, NATIONAL UNIVERSITY CORPORATION, priority 2019, published 2022).

Tests used:
Balb/c mice = experiment: Difference between α-GalCer administration and α-GalCer/DC administration (western blotting of Stat1, Stat6); assay type: in vivo; details: only α-GalCer administered, 4 days
Procedure: The differences in expression levels of proteins Stat1 and Stat6 and degrees of phosphorylation in a case where only α-GalCer was administered and in a case where DC was administered as a carrier (that is, α-GalCer/DC was administered, the number of administered cells: 3×10^6) were evaluated by western blotting.
In the test, α-GalCer alone or α-GalCer/DC was administered to the Balb/c mice, and the expression level of each protein in the myocardium 4 days after the administration was evaluated by western blotting.

[1] = system: mice with DOX cardiomyopathy; experiment: Effect of αGalCer on DOX mice: cardiac function and inflammatory cytokines; assay type: in vivo; details: for apoptosis of myocardial cells (TUNEL staining) / left ventricular end-systolic dimension (LVDs) / left ventricular fractional shortening rate (FS): DOX group or GalCer+DOX group; for WH/TL and LV/TL: DOX group vs Control, GalCer+DOX group vs DOX group
Procedure: 10-week-old male C57BL/6J mice were divided into four groups of a Control group, a GalCer group, a DOX group, and a GalCer+DOX group. Hereinafter, the administration method will be described by setting the day when doxorubicin was initially administered as Day 0 (FIG. 4(a)).
PBS (phosphate buffered saline) was intraperitoneally administered (ip) and physiological saline was intravenously administered to the mice of the Control group on Day-7 (7 days before Day 0).
αGalCer (0.1 μg/g) was intraperitoneally administered (ip) to the mice of the GalCer group on Day-7, and physiological saline was intravenously administered thereto on Days 0, 2, and 4.
PBS was intraperitoneally administered (ip) to the mice of the DOX group on Day-7, and doxorubicin (6 mg/kg) was intravenously administered thereto on Days 0, 2, and 4.
αGalCer (0.1 μg/g) was intraperitoneally administered (ip) to the mice of the Galfer+DOX group on Day-7, and doxorubicin (6 mg/kg) was intravenously administered thereto on Days 0, 2, and 4.
The body weight, the blood pressure, the echocardiogram, the organ weight, the expression level of Vα14Jα18, the cardiac function, and inflammatory cytokines of each mouse at the time point of Day 14 were evaluated. Echocardiography was performed by anesthetizing mice with pentobarbital using an ultrasonic recording device EUB-8000 (trade name of Hitachi Medical Corporation). The left ventricular end-diastolic dimension and the left ventricular systolic end-systolic dimension were measured from the echo image, and the left ventricular fractional shortening rate serving as an index of the left ventricular contractility was calculated by an expression of “(left ventricular end-diastolic dimension—left ventricular systolic end-systolic dimension)left ventricular end-diastolic dimension×100”.

[2] = system: mice with DOX cardiomyopathy; experiment: as above; assay type: in vivo; details: Days 7 and 14
humans = details: systemically administered to humans; cited from earlier work
male C57BL6J mice = experiment: Doxorubicin-induced cardiomyopathy model mice (DOX mouse): body weight, echocardiography, NKT cells and inflammatory cytokines in myocardium; assay type: in vivo
Procedure: Doxorubicin (6 mg/kg) was intravenously administered to male
C57BL6J mice aged 10 to 11 weeks from the tail vein once every two days. That is, in a case where the day when doxorubicin was initially administered was set to Day 0, doxorubicin was injected on Day 2 and Day 4 (total of 3 times of administration). At each time point of Day 0, 7, 14, 21, and 28, weight measurement and echocardiography were performed to evaluate the amounts of NKT cells and the expression levels of inflammatory cytokines in the myocardium.

myocardial fibroblasts = experiment: TGFβ administration to myocardial fibroblasts pretreated with IFNγ; assay type: cell-based
Procedure: The changes in expression levels of proteins when TGFβ was administered to myocardial fibroblasts pretreated with IFNγ were evaluated.
FIG. 39(a) is a western blot showing the expression levels of proteins (pSmad2, Smad2, pSmad3, and Smad3) when TGFβ was administered to myocardial fibroblasts pretreated with IFNγ (n=4). FIG. 39(b) is a graph quantifying the results of FIG. 39(a). The dose of IFNγ used for the pretreatment is 0, 1, 10, or 50 ng/mL, and the dose of TGFβ is 10 ng/mL. In the control group (CTL), neither IFNγ nor TGFβ was administered. Each graph is shown as a relative value in which the phosphorylation ratio (for example, pSmad2Smad2) in the CTL group is set to 1.0. When TGFβ was administered, Smad2 and Smad3 were phosphorylated, and the expression levels of pSmad2 and pSmad3 were increased.
FIG. 39(c) is a graph showing the expression levels of proteins (Ctgf, Col1a, and Col3a) when TGFβ was administered to myocardial fibroblasts pretreated with IFNγ (n=3 to 6). The dose of IFNγ used for the pretreatment is 0, 1, 10, or 50 ng/mL, and the dose of TGFβ is 10 ng/mL. Each graph is shown as a relative value in which the phosphorylation ratio (for example, pSmad2Smad2) in the CTL group is set to 1.0. In the graph, ** represents P<0.01, which is at a significant level with respect to the expression level of the CTL group.

[3] = system: primary cultured offspring rat myocardial cells; experiment: Stat phosphorylation in primary cultured offspring rat myocardial cells after IFNγ, IL4 or IL10; assay type: cell-based
Procedure: IFNγ, IL4 or IL10 was administered to primary cultured offspring rat myocardial cells, and the changes in phosphorylation of proteins (Stat1, Stat6, and Stat3) were evaluated.

[4] = system: inflammatory cells; myocardial cells; experiment: Cell death after IFNγ administration to inflammatory cells or myocardial cells; assay type: cell-based
[5] = system: offspring rat myocardial cells; experiment: Changes in expression levels of Angpt1 due to cytokine administration; assay type: cell-based; details: vs CTL group
Procedure: The changes in the expression levels of an angiogenic factor Angpt1 after administration of IFNγ, IL4, or IL10 to offspring rat myocardial cells were evaluated (each n=3).

[6] = system: cultured myocardial cells; experiment: IFN-γ stimulation of cultured myocardial cells, pPLN and p-Stat1 (SDS-PAGE); assay type: cell-based
Procedure: The cultured myocardial cells were stimulated by adding IFN-γ solutions with three different concentrations (1, 10, and 50 ng/mL), and changes in concentration of pPLN were evaluated by ^-the SDS-PAGE method.
The cultured myocardial cells were stimulated by adding 50 ng/mL of an IFN-γ solution, and a change in concentration of pPLN over time was evaluated by the SDS-PAGE method.

[7] = system: primary cultured myocardial fibroblasts; experiment: Fibrosis gene expression in myocardial fibroblasts after IFNγ, IL4 or IL10; assay type: cell-based; details: 1, 10, and 50 ng/mL, vs non-administration group (Veh)
Procedure: The changes in expression levels of genes (Ctgf Col1a, and Col3a) involved in fibrosis after IFNγ, IL4, or IL10 was administered to primary cultured myocardial fibroblasts were evaluated in order to investigate the mechanism by which the TGF β-Smad signaling system was inhibited due to the administration of α-GalCer/DC (number of administered cells: 3×10^6).
FIG. 38 is a graph showing changes in the expression levels of genes (Ctgf, Col1a, and Col3a) after the administration of IFNγ, IL4, or IL10 to myocardial fibroblasts. IFNγ, IL4, and IL10 were respectively administered at concentrations of 1, 10, and 50 ng/mL. Rps18 was used as an intrinsic control. “Veh” in the graphs represents a non-administration group (Vehicle).

[8] = system: primary cultured myocardial fibroblasts; experiment: Stat expression and phosphorylation in myocardial fibroblasts treated with IFNγ, IL4 or IL10; assay type: cell-based; details: vs CTL
Procedure: The primary cultured myocardial fibroblasts were treated with IFNγ, IL4, or IL10, and each of the expression levels of proteins (Stat1, Stat6, and Stat3) and the phosphorylation thereof were evaluated.

[9] = doxorubicin 6 mg/kg iv Days 0, 2, 4, Days 0 to 28
[10] = IFNγ pretreatment 1, 10, or 50 ng/mL, then TGFβ 10 ng/mL

CCCCCCCCCCCCCCCCCCCCCCCCCC(=O)N[C@@H](CO[C@H]1O[C@H](CO)[C@H](O)[C@H](O)[C@H]1O)[C@H](O)[C@H](O)CCCCCCCCCCCCCC [αGalCer, α-Galactosylceramide]
activation reaction of Stat1 in the myocardium (Balb/c mice): extremely weak
dose dependence of Stat1 activation (Balb/c mice): not observed
apoptosis of myocardial cells (TUNEL staining) [1]: inhibited
left ventricular end-systolic dimension (LVDs) ([1]; Day 14): improved to the same extent as the mice in the other groups
left ventricular fractional shortening rate (FS) ([1]; Day 14): improved to the same extent as the mice in the other groups
WH/TL and LV/TL ([1]; Day 14): improved
increase of expression level of Vα14Jα18 ([1]; αGalCer 0.1 μg/g ip Day-7, mice with DOX cardiomyopathy, Day 14): approximately 10.6 times
expression level of IFNγ [2]: increased
expression levels of inflammatory cytokines [2]: without decreasing
liver damage (humans): serious liver damage

COc1cccc2c1C(=O)c1c(O)c3c(c(O)c1C2=O)C[C@@](O)(C(=O)CO)C[C@@H]3O[C@H]1C[C@H](N)[C@H](O)[C@H](C)O1 [doxorubicin]
expression level of IL-6 (male C57BL6J mice; Day 7, vs Control): significantly increased
expression levels of IL-1β and TNF-α (male C57BL6J mice; Day 7, vs Control): decreased
expression levels of IL-1β, IL-6, and TNF-α (male C57BL6J mice; Day 14, vs doxorubicin non-administration group): all significantly increased
expression level of Vα14Jα18 (male C57BL6J mice; Days 7 and 14, Control set to 1): decreased
body weight (BW) (male C57BL6J mice; [9]): reduced after Day 7 tended to gradually increase
left ventricular fractional shortening rate (FS) (male C57BL6J mice; [9]): not improved
apoptosis of myocardial cells (TUNEL staining) [1]: observed
left ventricular end-systolic dimension (LVDs) ([1]; Day 14): large
left ventricular fractional shortening rate (FS) ([1]; Day 14): small
WH/TL and LV/TL ([1]; Day 14): significantly reduced

IFNγ: interferon (IFN)-γ, cytokine added to cultured cells
increase in expression levels of Ctgf, Col1a, and Col3a due to TGFβ (myocardial fibroblasts; [10]): inhibited in a dose-dependent manner
phosphorylation ratio of Smad2 and Smad3 (myocardial fibroblasts; [10]): decreased in a dose-dependent manner
phosphorylation of Stat1 by αGalCer/DC observed in myocardial tissues, reproduction in cultured myocardial cells [3]: reproduced
cell death of inflammatory cells [4]: easily caused cell death
expression levels of Angpt1 [5]: increased in a dose-dependent manner
p-Stat1 over time ([6]; IFN-γ 50 ng/mL): increased immediately after the stimulation
pPLN over time ([6]; IFN-γ 50 ng/mL): phosphorylated with a slight delay
phosphorylation of PLN ([6]; IFN-γ 1, 10, and 50 ng/mL): phosphorylated
expression levels of genes (Ctgf, Col1a, and Col3a) [7]: significantly decreased in a dose-dependent manner
expression levels and phosphorylation of Stat1 [8]: increased

TGFβ
expression levels of Ctgf, Col1a, and Col3a (myocardial fibroblasts; TGFβ 10 ng/mL, no pretreatment): increased
expression levels of pSmad2 and pSmad3 (myocardial fibroblasts; TGFβ 10 ng/mL, no pretreatment): increased

B1: IL4: interleukin-4, cytokine added to cultured cells (protein, UniProt P05112 25-153, looked up)
Interleukin-4: HKCDITLQEIIKTLNSLTEQKTLCTELTVTDIFAASKNTTEKETFCRAATVLRQFYSHHEKDTRCLGATAQQFHRHKQLIRFLKRLDRNLWGLAGLNSCPVKEANQSTLENFLERLKTIMREKYSKCSS
phosphorylation of Stat1 by αGalCer/DC observed in myocardial tissues, reproduction in cultured myocardial cells [3]: reproduced
expression levels of Angpt1 [5]: not increased
expression levels of genes (Ctgf, Col1a, and Col3a) [7]: the same as those in the non-administration group
phosphorylation of Stat6 [8]: increased in a dose-dependent manner

B2: IFNγ: interferon (IFN)-γ, cytokine added to cultured cells (protein, UniProt P01579 24-161, looked up)
Interferon gamma: QDPYVKEAENLKKYFNAGHSDVADNGTLFLGILKNWKEESDRKIMQSQIVSFYFKLFKNFKDDQSIQKSVETIKEDMNVKFFNSNKKKRDDFEKLTNYSVTDLNVQRKAIHELIQVMAELSPAAKTGKRKRSQMLFRG
cell death of myocardial cells [4]: did not cause cell death

B3: IL10: interleukin-10, cytokine added to cultured cells (protein, UniProt P22301 19-178, looked up)
Interleukin-10: SPGQGTQSENSCTHFPGNLPNMLRDLRDAFSRVKTFFQMKDQLDNLLLKESLLEDFKGYLGCQALSEMIQFYLEEVMPQAENQDPDIKAHVNSLGENLKTLRLRLRRCHRFLPCENKSKAVEQVKNAFNKLQEKGIYKAMSEFDIFINYIEAYMTMKIRN
phosphorylation of Stat1 by αGalCer/DC observed in myocardial tissues, reproduction in cultured myocardial cells [3]: not reproduced
expression levels of Angpt1 [5]: not increased
expression levels of genes (Ctgf, Col1a, and Col3a) [7]: the same as those in the non-administration group
phosphorylation of Stat6 [8]: not found
